Experimental data published in US12044684B2, “Methods for diagnosing an autistic spectrum disorder” (QATAR UNIVERSITY, priority 2018, dated 2024).

Test: Renal clearance (CL) of free adducts and unmodified amino acids deduced from plasma and spot urine
Assay type: in vivo, human
Description: In one embodiment, renal clearance amino acid adducts is deduced from the concentration of an amino acid adduct detected in a plasma and urine sample according to the following equation: CL (μl/mg creatinine or ml/mg creatinine)=[Analyte]Urine (nmol/mg creatinine)/[Analyte]Plasma (pmol/ml or nmol/ml).
Oxidation, nitration and glycation adduct residues are normalised to their amino acid residue precursors and given as mmol/mol amino acid modified; and related free adducts are given in nM. […] Renal clearance (CL) of glycation, oxidation and nitration free adducts and unmodified amino acids was deduced from plasma and spot urine collections: CL (μl/mg creatinine or ml/mg creatinine)=[Analyte]Urine (nmol/mg creatinine)/[Analyte]Plasma (pmol/ml or nmol/ml).

[1] = children with ASD with respect to healthy controls

SMILES | renal clearance, change [1] | also measured
NC(Cc1ccc(O)c(-c2cc(CC(N)C(=O)O)ccc2O)c1)C(=O)O (stereo not drawn) [DT, dityrosine] | decreased | –
N=C(N)NCCC[C@H](N)C(=O)O [arg, arginine] | decreased | decrease in renal clearance (CL) (children with ASD compared to healthy control, P<0.001): 32%
N[C@@H](CCCCN1C[C@@H](O)[C@@H](O)CC2NC(=NCCC[C@H](N)C(=O)O)N=C21)C(=O)O (stereo partly drawn) [GSP, glucosepane] | decreased | –
N=C(NCCC[C@H](N)C(=O)O)NCC(=O)O [CMA, Nω-carboxymethylarginine] | – | decrease in renal clearance (CL) (in vivo): 50%; renal clearance, change (in vivo): decreased
NC(CC(=O)c1ccccc1NC=O)C(=O)O (stereo not drawn) [NFK, N-formylkynurenine] | increased | –
N[C@@H](CCC(=O)O)C(=O)O [glu, glutamate] | decreased | –

Now from value to compound, other results behind:

renal clearance, change [1] | SMILES | also measured
decreased | N[C@@H](Cc1ccccc1)C(=O)O [phe, phenylalanine] | –
decreased | CC(C)C[C@H](N)C(=O)O [leu, leucine] | –
decreased | C[C@@H](O)[C@H](N)C(=O)O [thr, threonine] | –
increased | N[C@@H](Cc1c[nH]c2ccccc12)C(=O)O [trp, tryptophan] | –
